Test results: patent publication US12522593B2, “Azacycloalkyl carbonyl cyclic amine compound” (Alivexis, Inc., priority 2022, dated 2026)

Experiments:
human recombinant CTSC = human recombinant CTSC (Homo sapiens (Human), UniProt P53634); assay: CTSC inhibition assay (in vitro), fluorescent substrate GF-AFC; assay type: biochemical; details: 30 μmol/L GF-AFC, pH 5.0, 25° C.
Procedure: 1. CTSC Inhibition Assay (In Vitro)
A test specimen was evaluated by a CTSC inhibition assay using a fluorescent substrate GF-AFC (Gly-Phe-7-Amino-4-trifluoromethylcoumarin, MP Biomedical, 03AFC03325). Since the GF-AFC is converted by CTSC to aminotrifluoromethylcoumarin having a specific fluorescence wavelength and the produced amount is proportional to CTSC activity, quantitative analysis was performed by measuring a fluorescence intensity with a plate reader. CTSC inhibition assay for each compound was performed using a polystyrene-made non-adhesive surface-treated black 384 well plate under the following conditions.
A human recombinant CTSC (R&D systems, 1071-CY) was dissolved in a CTSC active cocktail (20 ng/mL of human recombinant cathepsin L (R&D systems, 952-CY, 25 mmol/L MES/NaOH (pH: 6.0), 5 mmol/L dithiothreitol (DTT)) so as to be 100 ng/mL and incubated at 18° C. for 30 minutes. The solution was diluted with a CTSC assay buffer (50 mmol/L MES/NaOH (pH: 5.0), 50 mmol/L NaCl, 0.001% Triton X-100, mmol/L DTT) so as to be 2 ng/mL in a case of performing CTSC inhibition assay.
The test specimen was dissolved in dimethylsulfoxide (DMSO) at 10 mmol/L to prepare a stock solution. In a case where a solution in which the stock solution was diluted 15-fold with DMSO was used as the maximum evaluation concentration (0.667 mmol/L), 5-fold dilution was repeated in DMSO from the solution to prepare a serially diluted solution. 248.8 μL of the CTSC assay buffer was added to 1.12 μL of the serially diluted sample prepared in the DMSO to prepare a solution of a CTSC inhibition assay compound.
The final composition of the CTSC inhibition assay mixture was 0.66 ng/mL activated CTSC, 50 mmol/L MES/NaOH (pH: 5.0), 50 mmol/L NaCl, 0.001% Triton X-100, 5 mmol/L DTT, 30 μmol/L GF-AFC, and 0.15% DMSO, and the procedure was as follows. That is, 4 μL of the compound solution and 4 μL of the 2 ng/mL activated CTSC solution were mixed with each other in a 384 well plate and incubated at 25° C. for 30 minutes. Thereafter, 4 μL of the GF-AFC solution dissolved in the CTSC assay buffer was added to the mixture so as to be 90 μmol/L. After mixing to be uniform, a fluorescence emission intensity at 505 nm in a case of being excited at 390 nm after incubating at 25° C. for 1 hour was measured with a plate reader. A 4-parameter regression analysis was performed with GraphPad Prism (manufactured by GraphPad Software) from a plot of the fluorescence intensity at 505 nm and the sample concentration, and an IC50 value was calculated.
Results of test compounds of Formula (I) are shown in Table 1 as IC50 (nM) values for which 50% inhibition concentration is calculated based on CTSC inhibition (%). In the table, Ex indicates an example number.

CTSC in U937 cells = CTSC in U937 cells (Homo sapiens (Human), UniProt P53634); assay: Intracellular CTSC inhibition assay (in vitro), LLOMe-induced cell death in U937 cells; assay type: cell-based; details: 3 hours culture, CellTiter-Glo
Sequence of CTSC in U937 cells (P53634 25-463): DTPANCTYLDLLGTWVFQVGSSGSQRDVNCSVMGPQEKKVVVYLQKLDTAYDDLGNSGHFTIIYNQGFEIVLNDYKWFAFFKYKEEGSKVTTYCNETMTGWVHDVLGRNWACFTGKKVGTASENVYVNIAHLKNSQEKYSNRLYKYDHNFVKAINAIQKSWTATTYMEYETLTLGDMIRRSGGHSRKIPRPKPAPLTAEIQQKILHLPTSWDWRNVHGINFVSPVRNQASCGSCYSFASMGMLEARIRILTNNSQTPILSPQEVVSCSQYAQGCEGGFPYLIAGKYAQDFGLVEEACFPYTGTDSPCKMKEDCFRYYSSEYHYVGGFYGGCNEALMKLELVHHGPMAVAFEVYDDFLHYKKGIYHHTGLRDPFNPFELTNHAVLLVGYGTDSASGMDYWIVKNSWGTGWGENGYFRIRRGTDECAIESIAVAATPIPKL
Procedure: 2. Intracellular CTSC Inhibition Assay (In Vitro)
A test specimen was evaluated by a degree of cell death in a case where a substrate LLOMe (L-Leucyl-L-Leucine methyl ester, hydrobromide salt, Sigma, 555045152) was added to U937 cells. The LLOMe is taken up into the cells by endocytosis and cleaved by CTSC. A product thereof induces lysosomal damage in cells and causes cell death in leukocytes and the like. Therefore, since the degree of cell death correlates with an amount of degradation of LLOMe, that is, with CTSC activity, by quantitatively analyzing the cell death, CTSC inhibitory activity of the test specimen in the cell was determined. CTSC inhibition assay was performed using a polystyrene-made white 384 well plate.
As the test specimen, a stock solution dissolved in DMSO was prepared so as to be 0.2 mmol/L, and in a case where a solution in which the stock solution was diluted 50-fold with a RPMI-1640 medium including 10% FBS was used as the maximum evaluation concentration (4000 nmol/L), a serially diluted solution was prepared by diluting the solution 3-fold with the medium. Thereafter, a 4-fold concentrated test specimen solution with the target final concentration was prepared.
U937 cells were cultured in a RPMI-1640 medium including 10% FBS, and diluted to prepare 90,000 cells/mL of cell suspension on the day of assay. 10 μL of the cell suspension was seeded per well. Next, 10 μL of the test specimen solution having a concentration 4 times the target final concentration was added thereto, and the mixture was allowed to stand for 30 minutes. Thereafter, 20 μL of a 300 μmol/L LLOMe solution dissolved in a RPMI-1640 medium including 10% FBS was added thereto, and the cells were cultured for 3 hours. After completion of the culture, 40 μL of CellTiter-Glo (registered trademark) reagent (Promega, G7570) was added to each well and mixed. After 15 minutes, 20 μL of the reaction solution in each well was transferred to a white 384 well plate, and a chemiluminescence intensity was measured with a plate reader. A 4-parameter regression analysis was performed with GraphPad Prism (manufactured by GraphPad Software) from a plot of the luminescence intensity and the sample concentration, and an IC50 value was calculated.
Results of test compounds of Formula (1) are shown in Table 2 as IC50 (nM) values for which 50% inhibition concentration is calculated based on CTSC inhibition (%). In the table, Ex indicates an example number.

Sequence of human recombinant CTSC (P53634 25-134): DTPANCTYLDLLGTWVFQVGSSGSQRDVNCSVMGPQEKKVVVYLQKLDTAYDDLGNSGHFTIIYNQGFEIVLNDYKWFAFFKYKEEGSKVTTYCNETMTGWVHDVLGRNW
Sequence of human recombinant CTSC (P53634 231-394): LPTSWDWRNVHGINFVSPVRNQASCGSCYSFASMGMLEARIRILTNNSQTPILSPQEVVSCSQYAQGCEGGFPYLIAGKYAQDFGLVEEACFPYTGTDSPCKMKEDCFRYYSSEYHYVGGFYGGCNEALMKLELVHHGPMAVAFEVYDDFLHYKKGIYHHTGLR
Sequence of human recombinant CTSC (P53634 395-463): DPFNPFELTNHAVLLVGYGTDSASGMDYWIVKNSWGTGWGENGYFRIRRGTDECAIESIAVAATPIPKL

Compound | IC50 (human recombinant CTSC) | IC50 (CTSC in U937 cells)
CC(C)C1(c2nc(C3CC(F)(F)C3)no2)CCN(C(=O)[C@@H]2C[C@@H](O)C3(CCC3)CN2)CC1 [Example 1, (4-(3-(3,3-Difluorocyclobutyl)-1,2,4-oxadiazol-5-yl)-4-isopropylpiperidin-1-yl)((7S,9R)-9-hydroxy-6-azaspiro[3.5]nonan-7-yl)methanone] | 1.63 nM | 0.49 nM
CC(C)C1(c2noc(C3CCC(F)(F)CC3)n2)CCN(C(=O)[C@@H]2C[C@@H](O)C(C)(C)CN2)CC1 [Example 36] | 1.88 nM | 0.71 nM
O=C([C@@H]1C[C@@H](O)C2(CCC2)CN1)N1CCC(c2nnn(-c3ccc(F)cc3)n2)(C(F)(F)F)CC1 [Example 95] | 3.02 nM | 0.2 nM
O=C([C@@H]1C[C@@H](O)C2(CCC2)CN1)N1CCC(c2nnn(C3CCC(F)(F)CC3)n2)(C(F)(F)F)CC1 [Example 66] | 1.05 nM | 0.46 nM
O=C([C@@H]1C[C@@H](O)C2(CCC2)CN1)N1CCC(c2nccc(-c3ccc(F)cc3)n2)CC1 [Example 101] | 1.93 nM | 0.96 nM
CC(C)C1(c2nc(C3CC(F)(F)C3)no2)CCN(C(=O)[C@@H]2C[C@@H](O)C(C)(C)CN2)CC1 [Example 54] | 3.88 nM | 1.46 nM
O=C([C@@H]1C[C@@H](O)C2(CCC2)CN1)N1CCC(c2noc(C3CCC(F)(F)CO3)n2)(C(F)(F)F)CC1 (stereo partly drawn) [Example 63, (4-(5-(5,5-Difluorotetrahydro-2H-pyran-2-yl)-1,2,4-oxadiazol-3-yl)-4-(trifluoromethyl)piperidin-1-yl)((7S,9R)-9-hydroxy-6-azaspiro[3.5]nonan-7-yl)methanone] | 1.85 nM | 1.01 nM
O=C(c1nc(C2(C(F)(F)F)CCN(C(=O)[C@@H]3C[C@@H](O)C4(CCC4)CN3)CC2)no1)N1CCC(F)(F)CC1 [Example 48] | 3.07 nM | 4 nM
CC1(C)CN(C(=O)c2nc(C3(C(F)(F)F)CCN(C(=O)[C@@H]4C[C@@H](O)C5(CCC5)CN4)CC3)no2)C1 [Example 53] | 18.7 nM | 11.3 nM
CC(C)C1(c2noc(C34CC(C3)C4)n2)CCN(C(=O)[C@@H]2C[C@@H](O)C3(CCC3)CN2)CC1 [Example 72] | 2.48 nM | 0.31 nM
CC(C)C1(c2nc(C3CC(C)(C)C3)no2)CN(C(=O)[C@@H]2CC[C@@]3(CCO3)CN2)C1 [Example 29] | 1.47 nM | 11.3 nM
O=C([C@@H]1C[C@@H](O)C2(CCC2)CN1)N1CCC(c2noc(C3CCC(F)(F)CC3)n2)(C(F)(F)F)CC1 [Example 31, (4-(5-(4,4-Difluorocyclohexyl)-1,2,4-oxadiazol-3-yl)-4-(trifluoromethyl)piperidin-1-yl)((7S,9R)-9-hydroxy-6-azaspiro[3.5]nonan-7-yl)methanone] | 0.31 nM | 0.22 nM
O=C([C@@H]1C[C@@H](O)C2(CCC2)CN1)N1CCC(c2ccsc2)(c2noc(C3CC(F)(F)C3)n2)CC1 [Example 79] | 2.17 nM | 0.75 nM
O=C([C@@H]1C[C@@H](O)C2(CCC2)CN1)N1CCC(c2nnn(-c3ccc(F)c(F)c3)n2)CC1 [Example 96] | 1.89 nM | 0.37 nM
CC(C)C1(c2noc(C3CCC(F)(F)CC3)n2)CCN(C(=O)[C@@H]2C[C@H](S(C)(=O)=O)CN2)CC1 [Example 30] | > 1000 nM | > 1000 nM
O=C([C@@H]1C[C@@H](O)C2(CCC2)CN1)N1CCC(n2nnc(-c3ccc(F)cn3)n2)CC1 [Example 105] | 2.53 nM | 3.97 nM
CC1(C)CN[C@H](C(=O)N2CCC(c3noc(C4CCC(F)(F)CC4)n3)(C(F)(F)F)CC2)C[C@H]1O [Example 56, (4-(5-(4,4-Difluorocyclohexyl)-1,2,4-oxadiazol-3-yl)-4-(trifluoromethyl)piperidin-1-yl)((2S,4R)-4-hydroxy-5,5-dimethylpiperidin-2-yl)methanone] | 2.06 nM | 0.71 nM
CC1(C)CN[C@H](C(=O)N2CCC(c3noc(C4CC(F)(F)C4)n3)(C(F)(F)F)CC2)C[C@H]1O [Example 51, (4-(5-(3,3-Difluorocyclobutyl)-1,2,4-oxadiazol-3-yl)-4-(trifluoromethyl)piperidin-1-yl)((2S,4R)-4-hydroxy-5,5-dimethylpiperidin-2-yl)methanone] | 8.28 nM | 0.86 nM
O=C([C@@H]1C[C@@H](O)C2(CCC2)CN1)N1CCC(c2ccc(F)cn2)(c2noc(C3CC(F)(F)C3)n2)CC1 [Example 44] | 2.74 nM | 4.24 nM
O=C([C@@H]1C[C@@H](O)C2(CCC2)CN1)N1CCC(C(=O)NCC2CCC(F)(F)CC2)(C(F)(F)F)CC1 [Example 22] | 1.03 nM | 20.8 nM
CC(C)C1(c2noc(C3CCC(F)(F)CC3)n2)CCN(C(=O)[C@H]2N[C@H]3CC[C@@H]2[C@H](O)C3)CC1 [Example 38] | > 200 nM | 124 nM
CC(C)C1(c2noc(C3CCC(F)(F)CC3)n2)CCN(C(=O)[C@H]2N[C@@H]3CC[C@H]2C3)CC1 [Example 26] | > 200 nM | 474 nM
CC(C)C1(C(=O)NC2CCC(F)(F)CC2)CN(C(=O)[C@@H]2C[C@@H](O)C3(CCC3)CN2)C1 [Example 15] | 1.9 nM | 791 nM
CC1(c2nc(C3(C(F)(F)F)CCN(C(=O)[C@@H]4C[C@@H](O)C5(CCC5)CN4)CC3)no2)CC(F)(F)C1 [Example 45] | 1.88 nM | 0.17 nM
O=C([C@@H]1C[C@@H](O)C2(CCC2)CN1)N1CCC(c2nccc(N3CCC(F)(F)CC3)n2)CC1 [Example 94] | 0.37 nM | 3.86 nM
O=C([C@@H]1C[C@@H](O)C2(CCC2)CN1)N1CCC(c2noc(C3CCC(F)(F)CO3)n2)(C(F)(F)F)CC1 (stereo partly drawn) [Example 64, (4-(5-(5,5-Difluorotetrahydro-2H-pyran-2-yl)-1,2,4-oxadiazol-3-yl)-4-(trifluoromethyl)piperidin-1-yl)((7S,9R)-9-hydroxy-6-azaspiro[3.5]nonan-7-yl)methanone] | 0.69 nM | 0.74 nM
CC(C)C1(c2nc(C3CC(F)(F)C3)no2)CCN(C(=O)[C@@H]2CC[C@@]3(CCO3)CN2)CC1 [Example 9] | 5.09 nM | 11.4 nM
O=C([C@@H]1C[C@@H](O)C2(CCC2)CN1)N1CCC(c2noc(C3CCCO3)n2)(C(F)(F)F)CC1 (stereo partly shown) [Example 62] | 6.39 nM | 1.62 nM
CN(CC1CCC(F)(F)CC1)C(=O)C1(C(F)(F)F)CCN(C(=O)[C@@H]2CC[C@@]3(CCO3)CN2)CC1 [Example 7] | 10.4 nM | 23.6 nM
